These results are taken from patent publication US20240423954A1, “Chlorthalidone Compositions And Methods” (Nivagen Pharmaceuticals, Inc., priority 2020, published 2024).

The data set can be described thus: Initial experiments on chlorthalidone API in solution. The format is physicochemical. Conditions: without excipients; would agglomerate and cake. From the text:
Accordingly, for stabilizing the chlorthalidone in a stabilized suspension, the inventors contemplated combining the chlorthalidone with select excipients. These excipients include at least a solubilizing and/or a wetting agent, at least one suspending agent, at least one viscosity increasing agent or at least one anti-caking agent, and water. The suspension may also further include an anti-foaming agent, at least one antimicrobial, and at least one sweetening agent.

As to `NS(=O)(=O)c1cc(C2(O)NC(=O)c3ccccc32)ccc1Cl` (stereo not shown) [chlorthalidone, Chlorthalidone], the “stability of the API in solution” value is recorded as “not stable in solution”.
